Assay results from paper PMC12124858, “Thymoquinone loaded on chitosan nanoparticles alleviated the consequences of cryptosporidiosis infection in a murine model: Evidence from parasitological, histopathological, immunohistochemical, and immunological studies” (PLOS One, 2025).
Marks after values point to notes of the source that are not given here.

Assays:
[1] = In vitro release study, dialysis method; assay type: physicochemical; details: PBS pH 6.8, 37°C
Procedure: The THQ release profile from […] […] Briefly, 3 mL of the […] suspension was placed in a dialysis bag (M.W. 12 kDa, Sigma-Aldrich). Each sealed dialysis bag was immersed in 50 mL of PBS (pH 6.8) in a shaking incubator at 37 ± 0.5°C and 100 rpm. Samples were withdrawn from the release medium at specified intervals and replaced with fresh buffer to maintain sink conditions. […] As a control, the release of free THQ and free NTZ was measured under the same conditions. All measurements were performed in triplicate.

Cryptosporidium parvum = experiment: Histopathological examination and scores of the intestine (H&E); assay type: in vivo, Swiss albino mice; details: 21 dpi; for Intestinal histopathological findings: H&E, in words
Procedure: At 21 dpi, the mice were humanely euthanized under light anesthesia induced by isoflurane inhalation (Forane®, Baxter, UK). Representative tissue specimens from all animals’ intestines, livers, and spleens were carefully collected and fixed in a 10% neutral buffered formalin solution for 48 hours. Following fixation, the tissues were dehydrated through a graded series of ethyl alcohol concentrations, cleared in xylene, and subsequently embedded in paraffin wax. Two sections, each 5 µm thick, were obtained from each tissue specimen. The sections were then deparaffinized in xylene and rehydrated through a descending series of alcohol concentrations. After rehydration, the tissue sections were mounted onto histological slides and stained with hematoxylin and eosin (H&E) for microscopic examination. The prepared slides were thoroughly analyzed under a light microscope to identify pathological alterations and evaluate the administered drug’s potential ameliorative effects. This standardized protocol ensured accurate and consistent histological assessment across all samples [39]. Histopathological scores for intestine: H&E-stained tissue sections of the intestine were evaluated in a blinded manner by assessing specific histological parameters, including mononuclear cell infiltration in the lamina propria, crypt hyperplasia, depletion or hyperplasia of goblet cells, and alterations in mucosal histoarchitecture. A systematic scoring approach was employed to quantify these histological changes. Histological alterations were counted in 50 randomly selected microscopic fields (captured images; 40 × objective) from each mouse within each experimental group. This method ensured a comprehensive and unbiased assessment of intestinal pathology across all samples [40].

cyclin D1 = experiment: Immunohistochemical staining of cyclin D1 in the intestine; assay type: in vivo, Swiss albino mice; details: 21 dpi, in words
Procedure: Immunohistochemical examination for detecting intestinal dysplasia using cyclin D1 marker: Three to five-micrometer intestinal tissue sections were deparaffinized using xylene and rehydrated using varying degrees of alcohol. Next, peroxidase activity was blocked using 3% hydrogen peroxide. The Dako target retrieval solution (pH 6.0) was applied for twenty minutes. The sections were treated for one hour with the primary antibody (Anti-Cyclin D1 antibody [SP4], ab 16663, Abcam, UK, diluted 1/100 in PBS). Antibody binding was identified using Dako’s HRP Envision Kit (Dako Cytomation, Denmark).

IFN-γ = experiment: Serum IFN-γ by ELISA; assay type: in vivo, Swiss albino mice
Procedure: (§1) Immunological measurements: Interleukin-10 (IL-10) and interferon-gamma (IFN-γ) levels in mouse sera were measured. Blood samples were collected in plain tubes from the mice’s retroorbital veins at the indicated time points (14 dpi and 21 dpi). After 30 minutes at room temperature and 15 minutes of centrifugation at 3000 rpm, sera were collected and stored at −20°C. Using an ELISA kit and following the manufacturer’s instructions, the enzyme-linked immunosorbent assay (ELISA) was employed to measure the levels of IFN-γ and IL-10 in the serum (Bioneovan Co.; Ltd, Beijing, China).

IL-10 = experiment: Serum IL-10 by ELISA; assay type: in vivo, Swiss albino mice
Procedure: as §1

[2] = Pharmacokinetic study after oral administration; assay type: in vivo, Wistar albino rats; details: rats, oral 20 mg/kg; for AUC(0-t): read-out: AUC₀ → 24; for half-life: read-out: T1/₂ (converted)
Procedure: All groups received an oral dose of 20 mg/kg of their respective formulations. Blood samples (500 μL) were collected from the ocular vein into heparinized tubes at intervals of 0.5, 1, 2, 4, 6, 8, 12, and 24 hours post-administration. The samples were centrifuged at 10,000 rpm for 5 min to isolate plasma stored at −20°C. Plasma samples were deproteinized by adding 1 mL of acetonitrile to each sample, followed by vortexing for 10 min and centrifugation at 6,000 rpm for another 10 min. […] Pharmacokinetic parameters such as peak plasma concentration (Cmax), time to reach peak concentration (Tmax), mean residence time (MRT), area under the curve (AUC), elimination rate constant (Kel), and plasma half-life (t1/2) were calculated using PK Solver 2.0 software through non-compartmental analysis.

[3] = Wistar albino, rat, plasma, n = 6

SMILES | Intestinal histopathological findings (Cryptosporidium parvum) | Morphometric indices: Villus width (Cryptosporidium parvum; intestine) | Lesion frequency: Epithelial necrosis (Cryptosporidium parvum; intestine, mean ± SE) | Lesion frequency: Goblet cell hyperplasia (Cryptosporidium parvum; intestine, mean ± SE) | Lesion frequency: Mucosal erosion (Cryptosporidium parvum; intestine, mean ± SE) | Lesion frequency: Mucosal ulceration (Cryptosporidium parvum; intestine, mean ± SE) | Lesion frequency: Mucosal-associated lymphocyte hyperplasia (Cryptosporidium parvum; intestine, mean ± SE) | Lesion frequency: Vascular congestion (Cryptosporidium parvum; intestine, mean ± SE) | Lesion frequency: Villus atrophy (Cryptosporidium parvum; intestine, mean ± SE) | Lesion frequency: Villus fusion (Cryptosporidium parvum; intestine, mean ± SE) | Morphometric indices: Thickness of lamina propria (Cryptosporidium parvum; intestine, mean ± SE) | Morphometric indices: Thickness of muscular layer per image (Cryptosporidium parvum; intestine, mean ± SE) | Morphometric indices: Villus height (Cryptosporidium parvum; intestine, mean ± SE) | Morphometric indices: Villus surface area (Cryptosporidium parvum; intestine, mean ± SE) | cyclin D1 immunostaining of the intestine (cyclin D1) | IFN-γ serum level, Mean ± SE (IFN-γ; 14 days post-infection) | IFN-γ serum level, Mean ± SE (IFN-γ; 21 days post-infection) | IL-10 serum level, Mean ± SE (IL-10; 14 days post-infection) | IL-10 serum level, Mean ± SE (IL-10; 21 days post-infection) | concentration at 0.5 h ([2]; Wistar albino, rat, plasma) | other results
CC(=O)Oc1ccccc1C(=O)Nc1ncc([N+](=O)[O-])s1 [NTZ, nitazoxanide, reference compound] | persistent villous atrophy and mild improvement in histopathological alterations | 91.2^A | 9 ± 0.58^B | 21.5 ± 0.76^B | 16 ± 0.58^B | 9.83 ± 0.6^B | 21 ± 0.58^C | 21 ± 0.97^B | 10 ± 0.58^B | 5.17 ± 0.31^B | 174.33 ± 1.05^B | 65.87 ± 0.59^BC | 298.67 ± 2.4^C | 27609.37 ± 307.03^C | Moderate immunostaining | 37.1 ± 1.2 ^b | 28.1 ± 1.3 ^b | 16.9 ± 0.6 cd | 30.9 ± 0.3 ^c | 24900 ± 9110 ng/mL | drug release ([1]; first eight hours): 100%; concentration at 12 h ([2]; Wistar albino, rat, plasma): 4160 ± 2710 ng/mL; concentration at 24 h ([2]; Wistar albino, rat, plasma): 1390 ± 890 ng/mL; AUC [2, 3]: 1440 ± 49.4 µg·h/mL; AUC(0-inf) [2, 3]: 1470 ± 52.3 µg·h/mL; Cmax [2, 3]: 53200 ± 4950 ng/mL; Tmax [2, 3]: 2 h; AUC(0-t) [2, 3]: 1440 ± 48.7 µg·h/mL; half-life [2, 3]: 6.55 ± 0.54 h; Kel ([2]; n = 6): 0.105 ± 0.0087 h˦ ¹
CC1=CC(=O)C(C(C)C)=CC1=O [THQ, 2-isopropyl-5-methyl-1,4-benzoquinone] | greater improvement than the NTZ-treated group | 91.4^A | 7.5 ± 0.43^B | 20.67 ± 0.49^BC | 14.83 ± 0.65^B | 8.83 ± 0.48^B | 22 ± 0.68^C | 18.5 ± 0.85^B | 9.83 ± 0.87^B | 4.83 ± 0.17^B | 170.33 ± 1.15^BC | 64.35 ± 0.2^C | 302 ± 2.35^C | 27975.53 ± 357.01^C | Moderate immunostaining | 36.8 ± 1.5 ^b | 29.3 ± 0.6 ^ab | 18.5 ± 0.6^bc | 33.3 ± 0.4 ^bc | 9790 ± 3250 ng/mL | drug release ([1]; after 12 hours): 100%; Morphometric indices: Crypt depth (Cryptosporidium parvum; intestine, mean ± SE): 79.7 ± 0.22^AB; concentration at 12 h ([2]; Wistar albino, rat, plasma): 4880 ± 1790 ng/mL; concentration at 24 h ([2]; Wistar albino, rat, plasma): 4190 ± 1580 ng/mL; AUC [2, 3]: 340 ± 13.6 µg·h/mL; AUC(0-inf) [2, 3]: 630 ± 22.1 µg·h/mL; Cmax [2, 3]: 43600 ± 7920 ng/mL; MRT [2, 3]: 6.97 ± 1.32 h; Tmax [2, 3]: 4 h; AUC(0-t) [2, 3]: 316 ± 12.5 µg·h/mL; half-life [2, 3]: 53.2 ± 4.88 h; Kel ([2]; n = 6): 0.013 ± 0.0012 h˦ ¹
